Consider 27 compounds from patent US9468661B2, “Pyrrolidine derivatives and their use as complement pathway modulators” (priority 2012, dated 2016).

The structures appear in SMILES notation. pIC50: −log10 of the molar value.

Sequence of human factor D (P00746 26-253): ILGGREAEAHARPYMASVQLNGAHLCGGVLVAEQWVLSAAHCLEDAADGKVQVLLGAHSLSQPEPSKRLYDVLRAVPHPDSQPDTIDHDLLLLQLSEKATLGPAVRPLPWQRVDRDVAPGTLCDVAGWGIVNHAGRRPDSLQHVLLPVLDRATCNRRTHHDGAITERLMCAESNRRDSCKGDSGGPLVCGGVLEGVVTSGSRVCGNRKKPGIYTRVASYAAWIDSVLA

For one experiment, the target named is human factor D (Homo sapiens (Human), UniProt P00746). The experiment is described as follows: biochemical. The class given is biochemical. The following applies: Factor D inhibition data using Method 1; recombinant human factor D 10 nM, substrate Z-Lys-thiobenzyl, fluorescence; read-out: IC50. On the procedure:
Human Complement Factor D Assay: Method 1
Recombinant human factor D (expressed in E. coli and purified using standard methods) at 10 nM concentration is incubated with test compound at various concentrations for 1 hour at room temperature in 0.1 M Hepes buffer, pH 7.5, containing 1 mM MgCl2, 1 M NaCl and 0.05% CHAPS. A synthetic substrate Z-Lys-thiobenzyl and 2,4-dinitrobenzenesulfonyl-fluoresceine are added to final concentrations of 200 μM and 25 μM, respectively. The increase in fluorescence is recorded at excitation of 485 nm and emission at 535 nm in a microplate spectrofluorimeter. IC50 values are calculated from percentage of inhibition of complement factor D-activity as a function of test compound concentration.
In general, pIC50 refers to the negative decadic logarithm of the IC50, by convention in mol/L. Turning to `CC(=O)c1nn(CC(=O)N2[C@@H]3C[C@@H]3C[C@H]2C(=O)NCC2CCCCC2F)c2cnccc12` (mixture of isomers) [Example 16, (1R,3S,5R)-2-[2-(3-Acetyl-pyrazolo[3,4-c]pyridin-1-yl)-acetyl]-2-aza-bicyclo[3.1.0] hexane-3-carboxylic acid (2-fluoro-cyclohexylmethyl)-amide (mixture of 4 diastereomers)], the pIC50 was 6.76.

For `CC(=O)c1nn(CC(=O)N2[C@@H]3C[C@@H]3C[C@H]2C(=O)NCC2CC(C)C2)c2ccc(OCc3ncccn3)cc12` (mixture of isomers) [Example 65, (1R,3S,5R)-2-{2-[3-Acetyl-5-(pyrimidin-2-ylmethoxy)-indazol-1-yl]-acetyl}-2-aza-bicyclo[3.1.0] hexane-3-carboxylic acid (3-methyl-cyclobutylmethyl)-amide (mixture of 4 diastereoisomers)], the pIC50 was 7.70.

`CC(=O)c1nn(CC(=O)N2[C@@H]3C[C@@H]3C[C@H]2C(=O)NCC2CCCC(C)(C)C2)c2cnccc12` (single isomer, unassigned; dia 1) [Example 17]: the pIC50 was 6.18.

Consider `CC(=O)c1nn(CC(=O)N2[C@@H]3C[C@@H]3C[C@H]2C(=O)NCC2CCCC2(C)C)c2cnccc12` (single isomer, unassigned; dia 1) [Example 19], for which the pIC50 is 5.79.

Regarding `CC(=O)c1nn(CC(=O)N2[C@@H]3C[C@@H]3C[C@H]2C(=O)NCC2CCCCC2(C)C)c2cnccc12` (single isomer, unassigned; dia 1) [Example 21], the pIC50 is 6.93.

As for `CC1CCCC1CNC(=O)[C@@H]1C[C@H]2C[C@H]2N1C(=O)Cn1nc(C(N)=O)c2ccncc21` (single isomer, unassigned; dia 1) [Example 85], the pIC50 is 5.85.

For `CC1CCCC(CNC(=O)[C@@H]2C[C@H]3C[C@H]3N2C(=O)Cn2nc(C(N)=O)c3ccncc32)C1` (single isomer, unassigned; dia 1) [Example 115], the pIC50 was 6.06.

As to `CC(=O)c1nn(CC(=O)N2[C@@H]3C[C@@H]3C[C@H]2C(=O)NCC2CCCC(C)C2)c2cnccc12` (single isomer, unassigned; dia 1) [Example 119], the pIC50 was 6.73.

For the compound `CC(=O)c1nn(CC(=O)N2[C@@H]3C[C@@H]3C[C@H]2C(=O)NCC2CCCC(C)(C)C2)c2cnccc12` (single isomer, unassigned; dia 2) [Example 18], the negative-log IC50 (pIC50) was 6.41.

With `CC(=O)c1nn(CC(=O)N2[C@@H]3C[C@@H]3C[C@H]2C(=O)NCC2CCCC2(C)C)c2cnccc12` (single isomer, unassigned; dia 2) [Example 20], the pIC50 is 6.63.

`CC(=O)c1nn(CC(=O)N2[C@@H]3C[C@@H]3C[C@H]2C(=O)NCC2CCCCC2(C)C)c2cnccc12` (single isomer, unassigned; dia 2) [Example 22]: the pIC50 is 5.92.

With `CC1CCCC1CNC(=O)[C@@H]1C[C@H]2C[C@H]2N1C(=O)Cn1nc(C(N)=O)c2ccncc21` (single isomer, unassigned; dia 2) [Example 86], the pIC50 is 6.21.

Staying with this experiment, now noted: IC50, Factor D inhibition data using Method 1; recombinant human factor D 10 nM, substrate Z-Lys-thiobenzyl, fluorescence.
As for `NC(=O)c1nn(CC(=O)N2[C@@H]3C[C@@H]3C[C@H]2C(=O)NC(CO)C2CC2(Cl)Cl)c2ccccc12` (single isomer, unassigned; dia 1) [Example 23], the pIC50 was 5.79.

Consider `CC1C(CNC(=O)[C@@H]2C[C@H]3C[C@H]3N2C(=O)Cn2nc(C(N)=O)c3ccccc32)C1(Cl)Cl` (single isomer, unassigned; dia 1) [Example 73, 1-(2-{(1R,3S,5R)-3-[((1R,3R) or (1S,3S)-2,2-Dichloro-3-methyl-cyclopropylmethyl)-carbamoyl]-2-aza-bicyclo[3.1.0]hex-2-yl}-2-oxo-ethyl)-1H-indazole-3-carboxylic acid amide-Dia 1], for which the pIC50 is 7.00.

On to `CC(=O)c1nn(CC(=O)N2[C@@H]3C[C@@H]3C[C@H]2C(=O)NCC2C(C)C2(Cl)Cl)c2ccc(OCc3ncccn3)cc12` (single isomer, unassigned; dia 1) [Example 75, (1R,3S,5R)-2-{2-[3-Acetyl-5-(pyrimidin-2-ylmethoxy)-indazol-1-yl]-acetyl}-2-aza-bicyclo[3.1.0] hexane-3-carboxylic acid ((1R,3R) or (1S,3S)-2,2-dichloro-3-methyl-cyclopropylmethyl)-amide-Dia 1], for which the pIC50 is 8.15.

As to `CC1C(CNC(=O)[C@@H]2C[C@H]3C[C@H]3N2C(=O)Cn2nc(C(N)=O)c3ccccc32)C1(Cl)Cl` (single isomer, unassigned; dia 1) [Example 77, 1-(2-{(1R,3S,5R)-3-[((1R,3S) or (1S,3R)-2,2-Dichloro-3-methyl-cyclopropylmethyl)-carbamoyl]-2-aza-bicyclo[3.1.0]hex-2-yl}-2-oxoethyl)-1H-indazole-3-carboxylic acid amide-Dia 1], the pIC50 is 7.46.

For `CC1C(CNC(=O)[C@@H]2C[C@H]3C[C@H]3N2C(=O)Cn2nc(C(N)=O)c3ccncc32)C1(Cl)Cl` (single isomer, unassigned; dia 1) [Example 79, 1-(2-{(1R,3S,5R)-3-[((1R,3S) or (1S,3R)-2,2-Dichloro-3-methyl-cyclopropylmethyl)-carbamoyl]-2-aza-bicyclo[3.1.0]hex-2-yl}-2-oxo-ethyl)-1H-pyrazolo[3,4-c]pyridine-3-carboxylic acid amide-Dia 1], the pIC50 was 6.64.

With `CC1C(CNC(=O)[C@@H]2C[C@H]3C[C@H]3N2C(=O)Cn2nc(C(N)=O)c3ccncc32)C1(Cl)Cl` (single isomer, unassigned; dia 1) [Example 81, 1-(2-{(1R,3S,5R)-3-[((1R,3R) or (1S,3R)-2,2-Dichloro-3-methyl-cyclopropylmethyl)-carbamoyl]-2-aza-bicyclo[3.1.0]hex-2-yI}-2-oxo-ethyl)-1H-pyrazolo[3,4-c]pyridine-3-carboxylic acid amide-Dia 1], the pIC50 was 7.68.

`CC1CCC(CNC(=O)[C@@H]2C[C@H]3C[C@H]3N2C(=O)Cn2nc(C(N)=O)c3ccccc32)C1` (single isomer, unassigned; dia 1) [Example 89]: the pIC50 is 7.13.

In the case of `CC(=O)c1nn(CC(=O)N2[C@@H]3C[C@@H]3C[C@H]2C(=O)NCC2C(C)C2(Cl)Cl)c2ccc(OCc3ncccn3)cc12` (single isomer, unassigned; dia 1) [Example 108, (1R,3S,5R)-2-{2-[3-Acetyl-5-(pyrimidin-2-ylmethoxy)-indazol-1-yl]-acetyl}-2-aza-bicyclo[3.1.0] hexane-3-carboxylic acid ((1R,3S) or (1S,3R)-2,2-dichloro-3-methyl-cyclopropylmethyl)-amide-Dia 1], the pIC50 was 7.57.

As for `NC(=O)c1nn(CC(=O)N2[C@@H]3C[C@@H]3C[C@H]2C(=O)NC(CO)C2CC2(Cl)Cl)c2ccccc12` (single isomer, unassigned; dia 2) [Example 24], the pIC50 is 6.12.

Take `CC(=O)c1nn(CC(=O)N2[C@@H]3C[C@@H]3C[C@H]2C(=O)NC(C)C2CC2(Cl)Cl)c2ccc(OCc3ncccn3)cc12` (single isomer, unassigned; dia 2) [Example 33]: the pIC50 was 6.52.

`CC1C(CNC(=O)[C@@H]2C[C@H]3C[C@H]3N2C(=O)Cn2nc(C(N)=O)c3ccccc32)C1(Cl)Cl` (single isomer, unassigned; dia 2) [Example 74, 1-(2-{(1R,3S,5R)-3-[((1R,3R) or (1S,3S)-2,2-Dichloro-3-methyl-cyclopropylmethyl)-carbamoyl]-2-aza-bicyclo[3.1.0]hex-2-yl}-2-oxo-ethyl)-1H-indazole-3-carboxylic acid amide-Dia 2]: the pIC50 is 7.92.

For the compound `CC(=O)c1nn(CC(=O)N2[C@@H]3C[C@@H]3C[C@H]2C(=O)NCC2C(C)C2(Cl)Cl)c2ccc(OCc3ncccn3)cc12` (single isomer, unassigned; dia 2) [Example 76, (1R,3S,5R)-2-{2-[3-Acetyl-5-(pyrimidin-2-ylmethoxy)-indazol-1-yl]-acetyl}-2-aza-bicyclo[3.1.0] hexane-3-carboxylic acid ((1R,3R) or (1S,3S)-2,2-dichloro-3-methyl-cyclopropylmethyl)-amide-Dia 2], the pIC50 is 8.52.

As for `CC1C(CNC(=O)[C@@H]2C[C@H]3C[C@H]3N2C(=O)Cn2nc(C(N)=O)c3ccccc32)C1(Cl)Cl` (single isomer, unassigned; dia 2) [Example 78, 1-(2-{(1R,3S,5R)-3-[((1R,3S) or (1S,3R)-2,2-Dichloro-3-methyl-cyclopropylmethyl)-carbamoyl]-2-aza-bicyclo[3.1.0]hex-2-yl}-2-oxo-ethyl)-1H-indazole-3-carboxylic acid amide-Dia 2], the pIC50 is 7.21.

`CC1C(CNC(=O)[C@@H]2C[C@H]3C[C@H]3N2C(=O)Cn2nc(C(N)=O)c3ccncc32)C1(Cl)Cl` (single isomer, unassigned; dia 2) [Example 80, 1-(2-{(1R,3S,5R)-3-[((1R,3S) or (1S,3R)-2,2-Dichloro-3-methyl-cyclopropylmethyl)-carbamoyl]-2-aza-bicyclo[3.1.0]hex-2-yl}-2-oxo-ethyl)-1H-pyrazolo[3,4-c]pyridine-3-carboxylic acid amide-Dia 2]: the pIC50 is 7.01.

Regarding `CC1C(CNC(=O)[C@@H]2C[C@H]3C[C@H]3N2C(=O)Cn2nc(C(N)=O)c3ccncc32)C1(Cl)Cl` (single isomer, unassigned; dia 2) [Example 82, 1-(2-{(1R,3S,5R)-3-[((1R,3R) or (1S,3S)-2,2-Dichloro-3-methyl-cyclopropylmethyl)-carbamoyl]-2-aza-bicyclo[3.1.0]hex-2-yl}-2-oxo-ethyl)-1H-pyrazolo[3,4-c]pyridine-3-carboxylic acid amide-Dia 2], the pIC50 was 7.07.
